Source: patent US20170168056A1, “METHODS AND COMPOSITIONS FOR DETECTING AND MODULATING CANCER CELLS” (Massachusetts Institute of Technology, priority 2015, published 2017)

Legend:
[1] = test system: MDA-MB-231 xenograft tumors; experiment: Xenograft tumor growth in NOD-SCID mice with chemotherapy treatment; format: in vivo, mouse; conditions: three doses Taxol/paclitaxel 10 mg/kg or two doses Doxorubicin 5 mg/kg; for growth of control tumors compared to vehicle: GFP (Control) tumors
Procedure: Mena or Mena^INV expression blocks Taxol efficacy on tumors in treated animals. Mice with xenograft tumors were generated by injection of MDA-MB-231 cells expressing GFP (Control), GFP-Mena (Mena) or GFP-Mena^INV (Mena^INV) into the mammary fat pads of NOD-SCID mice. […] Tumor size was measured before and after treatment. […] These in vivo findings are consistent with the results obtained in the in vitro data, and indicate that Men/Mena^INV promotes resistance to Taxol as judged by tumor growth.
Xenograft tumor generation and in vivo chemotherapy treatment. All animal experiments were approved by the MIT Division of Comparative Medicine. 2 million MDA-MB-231 cells expressing different MENA isoforms (in PBS and 20% collagen I) were injected into the 4th right mammary fat pad of six week-old female NOD-SCID mice (Taconic). When the tumors reached 1 cm in diameter, mice were treated every five days with either three doses of paclitaxel at 10 mg/kg in 1% DMSO, 3% PEG (MW 400), 1% Tween 80 in PBS by intra-peritoneal injection. In parallel, mice were treated with only in 1% DMSO, 3% PEG (MW 400), 1% Tween 80 in PBS as a vehicle control. One day after the last injection, tumors were measured and mice were use for intravital imaging and then sacrificed. Their tumors and lungs were fixed in 10% formalin overnight, their bone marrow were collected using PBS and cultured in DMEM with 10% fetal bovine serum. The number of tumor cell colonies in cultured bone morrow was counted 1 month after collection. The number of metastasis in each lobe of the lung were counted from lung H&E stained sections visualized by light microscopy and counted by two blinded individuals. Each tumor group contained 3-5 mice.
MENA isoform expression is associated with increased tumor growth in vivo during paclitaxel treatment. Whether MENA-associated paclitaxel resistance could also be observed in vivo was examined. Xenograft tumors were generated by injecting MDA-MB-231 cells expressing MENA isoforms into the mammary fat pads of NOD-SCID mice. Mice were treated with paclitaxel once tumors reached 1 cm in diameter (FIG. 30A).

[2] = test system: MDA-MB-231 xenograft tumors; experiment: Ki67 and cleaved caspase-3 immunostaining of xenograft tumor sections; format: in vivo, mouse; conditions: for proliferation (Ki67) in control tumors: MDA-MB-231 control tumors; for proliferation (Ki67) in control tumors / proliferation (Ki67) in Mena and Mena^INV tumors: vs vehicle; for proliferation (Ki67) in Mena and Mena^INV tumors: Mena- and Mena^INV-expressing tumors; for apoptosis (cleaved caspase-3, CC3): all three types of tumor
Description: The effects of increased Mena/Mena^INV levels on taxol treatment in vitro (increased fractions of viable cells) and in vivo (resistance to anti-tumor growth effects) could arise from increased proliferation, decreased apoptosis or both. To evaluate the effects of Mena/Mena^INV on proliferation and cell death, tumor sections were stained with antibodies to Ki67 (a proliferation marker) and cleaved caspase-3 (apopotic marker). […] Therefore, elevated Mena/Mena^INV expression allows continued tumor growth in treated animals by blocking the anti-proliferative effects of taxol treatment.
Immunohistochemistry for Examples 16-22. Tumors dissected from NOD/SCID mice were fixed in 10% buffered formalin and embedded in paraffin. Tissue sections (5 μm thick) were deparaffinized followed by antigen retrieval using Citra Plus solution (Biogenex). After treatment with 3% H2O2, sections were blocked with serum, incubated with primary antibodies overnight at 4° C. and fluorescently labeled secondary antibodies at room temperature for 2 hours. Sections were stained using anti-MENA (1:500), biotinylated anti-MENA^INV (1:500), anti-CC3 (1:200), anti-Ki67 (1:200) and DAPI. Fluorochromes on secondary antibodies included AlexaFluor 488, 594 or 647 (Jackson Immunoresearch). Sections were mounted in Fluoromount mounting media and imaged at room temperature. Z series of images were taken on a DeltaVision microscope using Softworx acquisition, an Olympus 40×1.3 NA plan apo objective and a Photometrics CoolSNAP HQ camera. At least 10 fields were captured for each tumor, with at least 3 tumors per tumor group.
As such, proliferation and apoptosis was examined by quantifying the intensity of cells positive for Ki67 and CC3, respectively by immunostaining.

microtubules (MT) [3] = experiment: MT length image analysis; format: cell-based, human; conditions: 231-MENA^INV cells, 10 nM paclitaxel 24 hours
microtubules (MT) [4] = experiment: Immunofluorescence ratio of Glu-MT (stable) to Tyr-MT (dynamic); format: cell-based, human
Procedure: Immunofluorescence. Glass bottom dishes (Mattek) were coated with Collagen at 0.1 mg/mL diluted in PBS and 50 μg/mL FN for 1 hour at 37° C. Cells were plated for 1 hour, and then treated with paclitaxel alone or in combination with MEKi for 24 hours. Cells were fixed for 20 minutes in 4% paraformaldehyde in PHEM buffer with 0.1% Gluteraldehyde, and then quenched with sodium borohydrate for 5 minutes. Cells were blocked with 2% BSA in TBS-0.1%TritonX-100 for 30 minutes, and incubated with primary antibodies and then secondary antibodies for 1 hour each, at room temperature. Z series of images were taken on an Applied Precision DeltaVision microscope using Softworx acquisition, an Olympus 60×1.4 NA plan apo objective and a Photometrics CoolSNAP HQ camera. Images were deconvolved using Deltavision Softworx software and objective specific point spread function. Images were analyzed with ImageJ, where the whole cell intensity levels of Tyr- or Glu-MT was measured. Images are pooled from at least 3 independent experiments.
Paclitaxel promotes cell death by increasing the stability of MTs, and pathways driving increased MT dynamics are known to promote resistance to taxanes. Therefore, MT structure and dynamics in MENA isoform expressing cells was examined during paclitaxel treatment. […] Post-translational modification of MTs can regulate their dynamics, and antibodies that detect such modifications can be used to infer the relative dynamics of MT populations; in particular, MT tyrosination indicates a dynamic MT state, while de-tyrosination of MTs is associated with increased stability. The relative abundance of stable (Glu-MT) vs. dynamic (Tyr-MT) MTs was measured in individual cells by immunofluorescence with anti-Glu-MT and anti-Tyr-MT antibodies (FIGS. 37A, 37B).
(§1) The MAPK signaling cascade is among the key pathways known to interact with MTs. Both ERK1/2 interact with MTs; MT stabilization by paclitaxel increases ERK phosphorylation and, in turn, ERK pathway activation increases MT dynamics.

ERK, Akt = experiment: Western blot for pERK Y204, ERK, pAkt473 and Akt; format: cell-based, human
Procedure: Western blot. Cells were lysed in 25 mM Tris, 150 mM NaCl, 10% glycerol, 1% NP 40 and […] EDTA with a protease Mini-complete protease inhibitors (Roche) and a phosphatase inhibitor cocktail (PhosSTOP, Roche) at 4° C. for 20 minutes. Protein lysates were separated by SDS-PAGE, transferred to a nitrocellulose membrane and blocked with Odyssey Blocking Buffer (LiCor). Membranes were incubated with primary antibody overnight at 4° C. and Licor secondary antibodies at room temperature for 1 hour. Protein level intensity was measured with Image J.
as §1

[5] = 72 hours of paclitaxel treatment, all three cell lines

SMILES: CC(=O)O[C@H]1C(=O)[C@@]2(C)[C@H]([C@H](OC(=O)c3ccccc3)[C@]3(O)C[C@H](OC(=O)[C@H](O)[C@@H](NC(=O)c4ccccc4)c4ccccc4)C(C)=C1C3(C)C)[C@]1(OC(C)=O)CO[C@@H]1C[C@@H]2O [paclitaxel]
- growth of control tumors compared to vehicle [1]: significantly decreased the growth of 231-Control tumors
- growth of control tumors compared to vehicle ([1]; listed as Taxol): significantly decreased growth of control tumors
- growth / response of Mena or Mena^INV tumors ([1]; Mena or Mena^INV expressing tumors): unaffected
- proliferation (Ki67) in control tumors [2]: decreased the amount of Ki67 staining
- proliferation (Ki67) in control tumors ([2]; listed as Taxol): significantly decreased
- proliferation (Ki67) in Mena and Mena^INV tumors [2]: failed to decrease the numbers of Ki67-positive cells
- proliferation (Ki67) in Mena and Mena^INV tumors ([2]; listed as Taxol): failed to decrease proliferation
- apoptosis (cleaved caspase-3, CC3) [2]: increase in cell death as marked by CC3 positive cells in all tumors
- apoptosis (cleaved caspase-3, CC3) ([2]; listed as Taxol): similar, significant apoptotic responses
- MT length (microtubules (MT) [3]): small but significant increase
- relative ratio of stable (Glu-MT) to dynamic (Tyr-MT) MTs (microtubules (MT) [4]; 231-Control cells, 10 nM paclitaxel 24 hours): significant increase
- relative levels of stable to dynamic MTs (microtubules (MT) [4]; 231-MENA and 231-MENA^INV cells, 10 nM paclitaxel 24 hours): no change
- stable MTs relative to dynamic MTs, either drug alone (microtubules (MT) [4]; 231-MENA^INV cells, single drug, 24 hours): had no effect
- total ERK levels (ERK, Akt; 72 hours of paclitaxel treatment): unchanged
- pERK Y204 levels (ERK, Akt; 72 hours of paclitaxel treatment (10 or 100 nM)): 231-MENA and 231-MENA^INV cells had higher levels of pERK Y204 relative to 231-Control cells
- pAkt473 levels (ERK, Akt; [5]): decreased pAkt473 levels equally
- total Akt levels (ERK, Akt; [5]): without significantly changing
